Measurements published in US20260250318A1, “COMPOSITIONS AND METHODS FOR CROSSING THE BLOOD BRAIN BARRIER” (VOYAGER THERAPEUTICS, INC., priority 2022, published 2026).

Test system: brains, heart, liver, muscle, and DRG of the NHPs
Assay: Maturation of TTM-001 and TTM-002 capsids, NGS enrichment in NHP tissues
Type: in vivo
From the text: This Example describes maturation of the AAV9 capsid variants, TTM-001 (SEQ ID NO: 981 (amino acid) and 983 (DNA), comprising SEQ ID NO: 941 (encoded by SEQ ID NO: 942)) and TTM-002 (SEQ ID NO: 982 (amino acid) and 984 (DNA), comprising SEQ ID NO: […] (encoded by SEQ ID NO: 944)) in NHPs to further enhance their transduction and biodistribution in the central nervous system as well as other tissues, and evolve the AAV capsid variants to provide further cross-species compatibility. Two approaches were used to mature the TTM-001 and TTM-002 capsid sequences in order to randomize and mutate within and around the peptide insert comprised within loop IV of the capsid variant. […] In the first maturation approach, sets of three contiguous amino acids were randomized across the mutagenesis region in the TTM-001 and TTM-002 sequences, which spanned from position 450 to position 466, numbered according to SEQ ID NO: 981 and 982. In the second maturation approach, mutagenic primers were used to introduce point mutations at a low frequency, scattered across the mutagenesis region in the TTM-001 and TTM-002 sequences ranging from position 449 to position 466, numbered according to SEQ ID NO: 981 and 982. AAV capsid variants arising from each maturation approach for TTM-001 and TTM-002 were pooled together, for subsequent testing and characterization in NHPs.
The library of pooled matured AAV capsid variants generated using the first maturation approach and the second maturation approach for the TTM-001 and TTM-002 AAV capsid variants were injected into two NHPs. […] Following RNA recovery and RT-PCR amplification, a systematic NGS enrichment analysis was performed to calculate the fold enrichment ratio relative to an AAV9 control, and the peptides comprised within the variants were identified.
Following the RNA recovery and NGS analysis from the second maturation approach, approximately 680,000 capsid variants were identified. The 680,000 matured capsid variants were then filtered based on samples with a raw virus count greater than 10 and a coefficient of variance (CV) of less than 1, which was calculated for each peptide across the brain samples taken from the two NHPs. […] Using this filtering criteria, this led to approximately 64,000 matured capsid variants.

[1] = NGS fold-enrichment, DRG, NHP, relative to AAV9
[2] = NGS fold-enrichment, brain, NHP, relative to AAV9
[3] = NGS fold-enrichment, heart, NHP, relative to AAV9
[4] = NGS fold-enrichment, liver DNA, NHP, relative to AAV9
[5] = NGS fold-enrichment, liver RNA, NHP, relative to AAV9
[6] = NGS fold-enrichment, muscle, NHP, relative to AAV9
[7] = NHP DRG, NGS, relative to AAV9 control
[8] = NHP brain, NGS, relative to AAV9 control
[9] = NHP heart, NGS, relative to AAV9 control
[10] = NHP liver DNA, NGS, relative to AAV9 control
[11] = NHP liver RNA, NGS, TTM-001 and TTM-002 matured AAV capsid variants, relative to AAV9 control
[12] = NHP muscle, NGS, relative to AAV9 control

Sequence	Fold Enrichment relative to AAV9, DRG (NHP) [1] [fold]	Fold Enrichment relative to AAV9, Brain (NHP) [2] [fold]	Fold Enrichment relative to AAV9, Heart (NHP) [3] [fold]	Fold Enrichment relative to AAV9, Liver DNA (NHP) [4] [fold]	Fold Enrichment relative to AAV9, Liver RNA (NHP) [5] [fold]	Fold Enrichment relative to AAV9, Muscle (NHP) [6] [fold]	Fold Enrichment relative to AAV9, DRG (NHP) [7] [fold]	Fold Enrichment relative to AAV9, Brain (NHP) [8] [fold]	Fold Enrichment relative to AAV9, Heart (NHP) [9] [fold]	Fold Enrichment relative to AAV9, Liver DNA (NHP) [10] [fold]	Fold Enrichment relative to AAV9, Liver RNA (NHP) [11] [fold]	Fold Enrichment relative to AAV9, Muscle (NHP) [12] [fold]
KTINGSGSPHSKAKGWQT	0.000	0.000	0.000	1.827	10.450	0.000	–	–	–	–	–	–
KTINGSGSPHSKAKKVQT	0.000	0.000	0.000	3.974	10.102	0.000	–	–	–	–	–	–
KTINGSGSPHSKALRCQT	–	–	–	–	–	–	0.000	0.000	0.000	1.892	17.283	0.000
KTINGSGSPHSKALRHQT	0.000	0.000	0.000	4.532	10.774	0.000	–	–	–	–	–	–
KTINGSGSPHSKALRWQT	–	–	–	–	–	–	0.000	0.000	0.000	5.252	14.118	0.000
KTINGSGSPHSKAPRRQT	–	–	–	–	–	–	0.000	0.000	0.000	3.940	21.645	0.000
KTINGSGSPHSKAQARKT	–	–	–	–	–	–	0.000	0.000	0.000	3.644	96.557	0.000
KTINGSGSPHSKAQCLKT	–	–	–	–	–	–	0.000	0.000	0.000	1.453	49.565	0.000
KTINGSGSPHSKAQFCLT	0.000	0.000	0.000	3.371	10.065	0.000	–	–	–	–	–	–
KTINGSGSPHSKAQFILT	–	–	–	–	–	–	0.000	0.000	0.000	4.208	16.650	0.000
KTINGSGSPHSKAQKCIT	–	–	–	–	–	–	0.000	0.000	0.000	1.887	69.547	0.000
KTINGSGSPHSKAQMQIT	–	–	–	–	–	–	0.000	0.000	0.000	0.371	13.990	0.000
KTINGSGSPHSKAQNFKR	–	–	–	–	–	–	0.000	0.000	0.000	0.964	32.291	0.000
KTINGSGSPHSKAQRFKT	–	–	–	–	–	–	0.000	0.000	0.000	0.139	30.363	0.000
KTINGSGSPHSKAQSAKT	–	–	–	–	–	–	0.000	0.000	0.000	4.200	11.162	0.000
KTINGSGSPHSKAQSRKT	–	–	–	–	–	–	0.000	0.000	0.000	2.715	14.589	0.000
KTINGSGSPHSKAQTCRT	–	–	–	–	–	–	0.000	0.000	0.000	6.369	26.472	0.000
KTINGSGSPHSKAQTHRT	–	–	–	–	–	–	0.000	0.000	0.000	2.917	17.290	0.000
KTINGSGSPHSKAQYSRT	–	–	–	–	–	–	0.000	0.000	0.000	0.956	60.119	0.000
KTINGSGSPHSKAQYVRT	–	–	–	–	–	–	0.000	0.000	0.000	3.275	12.239	0.000
KTINGSGSPHSKARISQT	–	–	–	–	–	–	0.000	0.000	0.000	1.565	12.142	0.000
KTINGSGSPHSKARMYQT	–	–	–	–	–	–	0.000	0.000	0.000	0.313	23.424	0.000
KTINGSGSPHSKARQRQT	–	–	–	–	–	–	0.000	0.000	0.000	2.205	56.775	0.000
KTINGSGSPHSKARWQQT	–	–	–	–	–	–	0.000	0.000	0.000	2.377	45.017	0.000
KTINGSGSPHSKCFLQQT	–	–	–	–	–	–	0.000	0.000	0.000	1.434	22.987	0.000
